# Measured values: patent US9132140B2, “Boronic acid derivatives and therapeutic uses thereof” (Rempex Pharmaceuticals, Inc., priority 2013, dated 2015)
# Experiments:
# [1] = tested on: KP1081 (NDM-1, TEM-1, SHV-11, CMY-6, CTX-M-15); type: cell-based, Klebsiella pneumoniae
# Text: (§1) Several strains simultaneously expressing both class A and class B carbapenemases, which were constructed using conjugation, were also included in the panel.
# [2] = tested on: KPM1099 (NDM, KPC); type: cell-based, Klebsiella pneumoniae
# Text: as §1
# [3] = tested on: KPM1122 (NDM, VIM); type: cell-based, Klebsiella pneumoniae
# Text: as §1
# [4] = tested on: KP1004 (KPC TEM SHV); type: cell-based, Klebsiella pneumoniae
# Text: as §1
# [5] = tested on: KPM1110 (NDM, KPC); type: cell-based, Klebsiella pneumoniae
# Text: as §1
# [6] = tested on: KPM1347 (NDM-1 SHV CTX-M-15); type: cell-based, Klebsiella pneumoniae
# Text: as §1
# [7] = tested on: KP1059 (VIM-1, SHV-11); type: cell-based, Klebsiella pneumoniae
# Text: as §1
# [8] = tested on: KPM1123 (KPC-2 TEM SHV); type: cell-based, Klebsiella pneumoniae
# Text: as §1
# [9] = tested on: KPM1344 (VIM-1); type: cell-based, Klebsiella pneumoniae
# Text: as §1
# [10] = tested on: KPM1345 (VIM-1 SHV); type: cell-based, Klebsiella pneumoniae
# Text: as §1
# [11] = tested on: KP1097 (IMP-1 SHV); type: cell-based, Klebsiella pneumoniae
# Text: as §1
# [12] = tested on: KPM1346 (NDM-1 TEM SHV CTX-M-15 CMY); type: cell-based, Klebsiella pneumoniae
# Text: as §1
# [13] = tested on: KP1061 (KPC TEM SHV); type: cell-based, Klebsiella pneumoniae
# Text: as §1
# [14] = target: P99/AmpC of ECL (Enterobacter cloacae, UniProt P05364); experiment: biochemical; conditions: nitrocefin; read-out: Ki (P99/AmpC of ECL, NCF)
# Description: Purified enzymes were mixed with various concentrations of inhibitors in reaction buffer and incubated for 10 min at room temperature. Nitrocefin was added and substrate cleavage profiles were recorded at 490 nm every 10 sec for 10 min.
# [15] = tested on: strains of Enterobacteriaceae producing various carbapenemases; experiment: Meropenem/imipenem potentiation MIC, whole panel; type: cell-based; conditions: strains expressing various carbapenemases, incl. class A and class B simultaneously; compound fixed 4 vg/ml
# Text: Several strains simultaneously expressing both class A and class B carbapenemases, which were constructed using conjugation, were also included in the panel. […]
# [16] = tested on: EA1019 (SHV-5, VIM-1); type: cell-based, Enterobacter aerogenes
# Text: as §1
# Chain of P99/AmpC of ECL (P05364 21-381): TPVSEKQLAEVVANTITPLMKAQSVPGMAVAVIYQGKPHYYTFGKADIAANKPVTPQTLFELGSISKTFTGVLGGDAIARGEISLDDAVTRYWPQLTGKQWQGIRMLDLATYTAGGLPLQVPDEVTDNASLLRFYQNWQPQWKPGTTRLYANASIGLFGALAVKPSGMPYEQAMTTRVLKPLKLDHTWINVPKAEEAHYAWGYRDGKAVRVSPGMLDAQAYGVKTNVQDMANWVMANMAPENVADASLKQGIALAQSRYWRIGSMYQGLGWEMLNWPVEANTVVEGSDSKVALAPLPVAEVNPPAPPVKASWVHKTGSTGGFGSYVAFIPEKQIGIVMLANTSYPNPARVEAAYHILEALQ
smiles,measurement,setting,value
"Nn1cnnc1S[C@H]1Cc2cccc(C(=O)O)c2OB1O [Compound 14, (R)-3-(4-amino-4H-1,2,4-triazol-3-ylthio)-2-hydroxy-3,4-dihydro-2H-benzo[e][1,2]oxaborinine-8-carboxylic acid]",Imipenem + 14 MIC,[1],X (key: X: MIC of less than 1 μg/mL; Y: MIC of 1 μg/mL to 10 μg/mL; Z: MIC of greater than 10 μg/mL)
same,Meropenem + 14 MIC,[1],X (key: X: MIC of less than 1 μg/mL; Y: MIC of 1 μg/mL to 10 μg/mL; Z: MIC of greater than 10 μg/mL)
same,Imipenem + 14 MIC,[2],Y (key: X: MIC of less than 1 μg/mL; Y: MIC of 1 μg/mL to 10 μg/mL; Z: MIC of greater than 10 μg/mL)
same,Meropenem + 14 MIC,[2],Y (key: X: MIC of less than 1 μg/mL; Y: MIC of 1 μg/mL to 10 μg/mL; Z: MIC of greater than 10 μg/mL)
same,Imipenem + 14 MIC,[3],Y (key: X: MIC of less than 1 μg/mL; Y: MIC of 1 μg/mL to 10 μg/mL; Z: MIC of greater than 10 μg/mL)
same,Meropenem + 14 MIC,[3],Y (key: X: MIC of less than 1 μg/mL; Y: MIC of 1 μg/mL to 10 μg/mL; Z: MIC of greater than 10 μg/mL)
same,Imipenem + 14 MIC,[4],X (key: X: MIC of less than 1 μg/mL; Y: MIC of 1 μg/mL to 10 μg/mL; Z: MIC of greater than 10 μg/mL)
same,Meropenem + 14 MIC,[4],X (key: X: MIC of less than 1 μg/mL; Y: MIC of 1 μg/mL to 10 μg/mL; Z: MIC of greater than 10 μg/mL)
same,Imipenem + 14 MIC,[5],X (key: X: MIC of less than 1 μg/mL; Y: MIC of 1 μg/mL to 10 μg/mL; Z: MIC of greater than 10 μg/mL)
same,Meropenem + 14 MIC,[5],X (key: X: MIC of less than 1 μg/mL; Y: MIC of 1 μg/mL to 10 μg/mL; Z: MIC of greater than 10 μg/mL)
same,Imipenem + 14 MIC,[6],X (key: X: MIC of less than 1 μg/mL; Y: MIC of 1 μg/mL to 10 μg/mL; Z: MIC of greater than 10 μg/mL)
same,Meropenem + 14 MIC,[6],X (key: X: MIC of less than 1 μg/mL; Y: MIC of 1 μg/mL to 10 μg/mL; Z: MIC of greater than 10 μg/mL)
same,Imipenem + 14 MIC,[7],Y (key: X: MIC of less than 1 μg/mL; Y: MIC of 1 μg/mL to 10 μg/mL; Z: MIC of greater than 10 μg/mL)
same,Meropenem + 14 MIC,[7],Y (key: X: MIC of less than 1 μg/mL; Y: MIC of 1 μg/mL to 10 μg/mL; Z: MIC of greater than 10 μg/mL)
same,Imipenem + 14 MIC,[8],X (key: X: MIC of less than 1 μg/mL; Y: MIC of 1 μg/mL to 10 μg/mL; Z: MIC of greater than 10 μg/mL)
same,Meropenem + 14 MIC,[8],X (key: X: MIC of less than 1 μg/mL; Y: MIC of 1 μg/mL to 10 μg/mL; Z: MIC of greater than 10 μg/mL)
same,Imipenem + 14 MIC,[9],X (key: X: MIC of less than 1 μg/mL; Y: MIC of 1 μg/mL to 10 μg/mL; Z: MIC of greater than 10 μg/mL)
same,Meropenem + 14 MIC,[9],Y (key: X: MIC of less than 1 μg/mL; Y: MIC of 1 μg/mL to 10 μg/mL; Z: MIC of greater than 10 μg/mL)
same,Imipenem + 14 MIC,[10],X (key: X: MIC of less than 1 μg/mL; Y: MIC of 1 μg/mL to 10 μg/mL; Z: MIC of greater than 10 μg/mL)
same,Meropenem + 14 MIC,[10],X (key: X: MIC of less than 1 μg/mL; Y: MIC of 1 μg/mL to 10 μg/mL; Z: MIC of greater than 10 μg/mL)
same,Imipenem + 14 MIC,[11],X (key: X: MIC of less than 1 μg/mL; Y: MIC of 1 μg/mL to 10 μg/mL; Z: MIC of greater than 10 μg/mL)
same,Meropenem + 14 MIC,[11],Y (key: X: MIC of less than 1 μg/mL; Y: MIC of 1 μg/mL to 10 μg/mL; Z: MIC of greater than 10 μg/mL)
same,Imipenem + 14 MIC,[12],Y (key: X: MIC of less than 1 μg/mL; Y: MIC of 1 μg/mL to 10 μg/mL; Z: MIC of greater than 10 μg/mL)
same,Meropenem + 14 MIC,[12],Z (key: X: MIC of less than 1 μg/mL; Y: MIC of 1 μg/mL to 10 μg/mL; Z: MIC of greater than 10 μg/mL)
same,Imipenem + 14 MIC,[13],X (key: X: MIC of less than 1 μg/mL; Y: MIC of 1 μg/mL to 10 μg/mL; Z: MIC of greater than 10 μg/mL)
same,Meropenem + 14 MIC,[13],X (key: X: MIC of less than 1 μg/mL; Y: MIC of 1 μg/mL to 10 μg/mL; Z: MIC of greater than 10 μg/mL)
same,Ki,[14],< 100 nM
same,carbapenem MIC in the presence of compound,[15],significantly reduced
same,Imipenem + 14 MIC,[16],Y (key: X: MIC of less than 1 μg/mL; Y: MIC of 1 μg/mL to 10 μg/mL; Z: MIC of greater than 10 μg/mL)
same,Meropenem + 14 MIC,[16],X (key: X: MIC of less than 1 μg/mL; Y: MIC of 1 μg/mL to 10 μg/mL; Z: MIC of greater than 10 μg/mL)
